Measured values reported in patent US11578040B2, “[5]Helicene derivatives as molecular reporters for diagnostic applications and methods of synthesis therefor” (NATIONAL SCIENCE AND TECHNOLOGY DEVELOPMENT AGENCY, priority 2016, dated 2023).

Columns and labels:
antigen = assay: Testing of binding reactivity of antibody after conjugation with molecular reporter on 96-well plates (HRP-labeled anti-mouse antibody, signal at 450 nm); details: 2 μg/mL conjugated antibody, antigen-coated 96-well plate
Description: The binding reactivity of antibody conjugating molecular reporter (compound 6, compound 8, and compound 14) to antigen could be tested with an immobilization of antigen on wells of 96-well plates. The molecular reporter conjugated antibody was added into the wells. The antibody would bind to the antigen coating wells. Horseradish peroxidase labeled antibody specific to mouse antibody was used as a reporter molecule for reporting binding reactivity. The results of molecular reporter conjugated antibody were compared with results of antibody without molecular reporter conjugation.
The method for testing binding reactivity of molecular reporter conjugated antibody and antigen in 96-well plate consists of the following steps. • a) Prepare 2 μg/mL of antigen in carbonate buffer containing 50 mM carbonate, pH 9.6, and immobilize antigen (100 μL/well) in 96-well plate. • b) Incubate 96-well plate in step 1 at 4° C. for 12-16 hours. • c) Block non-specific binding with 300 μL/well of 2% bovine serum albumin in phosphate-buffered saline containing 0.05% Tween (PBST), and incubate at room temperature for 1 hour. • d) Wash 96-well plates in step 3 with 300 μL/well of PBST for 3 times. • e) Add 100 μL/ well of 2 μg/mL of antibody conjugating molecular reporter (compound 6, compound 8, and compound 14), and incubate at room temperature for 1 hour. • f) Wash 96-well plates in step 5 with 300 μL/well of PBST for 3 times. • g) Add 100 μL/well of horseradish peroxidase labeled antibody specific to mouse antibody (dilution at 1:10,000), and incubate at room temperature for 1 hour. • h) Wash 96-well plates in step 7 with 300 μL/well of PBST for 3 times. • i) Add 100 μL/well of substrate solution for horseradish peroxidase which is 3,3′,5,5′-Tetramethylbenzidine, and incubate at room temperature for 30 minutes. • j) Add 50 μL/well of sulfuric acid (H2SO4) for stop reaction. • k) Measure signals at 450 nm.

Row | melting point [°C] | Structure (SMILES) | binding of antibody conjugating molecular reporter to antigen (FIG. 5) (antigen) | effect of molecular reporter on binding reactivity of antibody compared with antibody without any conjugation (FIG. 5) (antigen)
1 |  | N#Cc1c(C#N)c2ccc3cc(OCCCCCC(=O)O)ccc3c2c2c1ccc1cc(OCCCCCC(=O)O)ccc12 [compound 6, 6,6′-((3,4-dicyanodibenzo[c,g]phenanthrene-8,13-diyl)bis(oxy))dihexanoic acid] | antibody could bind to antigen | did not affect the binding reactivity of antibody
2 | 135 to 139 | N#Cc1c(C#N)c2c(c3c1CCc1cc(OCCCCCC=O)ccc1-3)-c1ccc(OCCCCCC=O)cc1CC2 [compound 8, 8,13-bis((6-oxohexyl)oxy)-1,2,5,6-tetrahydrodibenzo[c,g]phenanthrene-3,4-dicarbonitrile] | antibody could bind to antigen | did not affect the binding reactivity of antibody
